Measured values taken from PubChem BioAssay (NCI).
Where “and” joins values, the source holds several entries; their conditions need not be identical. Equal values may be shown once.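 Compound exposure: 48 hours, 5 concentrations, 96-well plates. GI50: concentration for 50% inhibition of growth. TGI marks complete inhibition of growth.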

Key:
Test in all cases: DTP human tumour cell line panel, 48 h
[1] = tested on: MDA-MB-231 breast
[2] = tested on: HS 578T breast
[3] = tested on: NCI/ADR-RES ovarian
[4] = tested on: MDA-MB-435
[5] = tested on: BT-549 breast

| SMILES | TGI [1] | TGI [2] | GI50 [3] | TGI [3] | TGI [4] | TGI [5] | GI50 [1] | GI50 [2] | GI50 [4] | GI50 [5] |
| --- | --- | --- | --- | --- | --- | --- | --- | --- | --- | --- |
| Cc1nc2ccc(CN(C)c3ccc(C(=O)N[C@@H](CCC(=O)O)C(=O)O)s3)cc2c(=O)[nH]1 | > 100 µM | > 100 µM | < 0.0149 µM | > 100 µM | > 100 µM | > 100 µM |  |  |  |  |
| Cn1cc(-c2nonc2-c2c[nH]c3ccccc23)c2ccccc21 | 3.23 µM | 2.32 µM | 0.378 µM | 14 µM | 0.494 µM | 7.78 µM | 0.489 µM | 0.298 µM | 0.182 µM | 0.588 µM |
| C=CC(=O)Nc1ccc(Nc2nccc(-c3ccc(N4CCCC4)c(C#N)c3)n2)cc1 | > 25 µM | > 25 µM | > 25 µM | > 25 µM | > 25 µM | > 25 µM | > 25 µM | 5.15 µM | 7.09 µM | > 25 µM |
| O=[N+]([O-])c1ccc(Nc2ccccc2-c2ccccc2)c2nonc12 | 31.2 µM | 62.8 µM | 13.6 µM | 34.7 µM | 45.9 µM | 28.8 µM | 14.5 µM | 15.2 µM | 13.9 µM | 11.5 µM |
| CC/C(Cc1ccccc1)=C(\c1ccc(OCCN2CCCCCC2)cc1)c1ccc(OC(=O)NCc2ccccc2)cc1 | 9.02 µM | 11.8 µM | 3.9 µM | 12.3 µM | 5.08 µM | 14.1 µM | 2.59 µM | 2.66 µM | 1.54 µM | 6.74 µM |
| COc1cc(C(=O)OCCCCCCCCCCC[P+](c2ccccc2)(c2ccccc2)c2ccccc2)ccc1O | 1.16 µM | 5.25 µM | 2.43 µM | 6.52 µM | 1.24 µM | 1.26 µM | 0.301 µM | 0.549 µM | 0.312 µM | 0.271 µM |
| CC(=O)C1=C(O)C=C2Oc3c(C(=O)/C=C/c4cc(C(F)(F)F)cc(C(F)(F)F)c4)c(O)c(C)c(O)c3[C@]2(C)C1=O | 1.84 µM | 5.4 µM | 0.5 µM | 2.93 µM | 2.35 µM | 1.8 µM | 0.525 µM | 0.861 µM | 0.587 µM | 0.492 µM |
| COc1ccc(C#Cc2ccccc2C#CCCCCO)cc1 | 32.2 µM | 65.1 µM | 24.4 µM | 48.4 µM | 38.9 µM | 46.1 µM | 17.3 µM | 28.3 µM | 21.1 µM | 21.1 µM |
| COc1cc(-c2nn3c(/C=C4/C(=O)Nc5ccccc54)c(-c4ccc(C)cc4)nc3s2)cc(OC)c1OC | 20.8 µM | 7.49 µM | 3.05 µM | > 100 µM |  | 38.1 µM | 3.51 µM | 0.505 µM |  | 4.69 µM |
| C=C(Cn1c(=O)c2ccccc2c2ccccc21)c1ccc(C(=O)Nc2ccccc2N)cc1 | > 27.8 µM | > 100 µM | 3.78 µM | > 57.8 µM | > 100 µM | 97.7 µM | 1.75 µM | 58.2 µM | 24.2 µM | 14.8 µM |
| COC(=O)[C@@H](NC(=O)NC(=O)NC(=O)CI)C(C)C | 34.9 µM | 74.6 µM | 25.4 µM | 73 µM | 21.7 µM | 23.7 µM | 17 µM | 26.4 µM | 9.97 µM | 11.5 µM |
| Cc1nc2sccn2c1/C=C1/C(=O)Nc2ccccc21 | > 82.5 µM | > 78.1 µM | 3.51 µM | > 51 µM | 11 µM | > 100 µM | 4.53 µM | 19.4 µM | 0.582 µM | 17.2 µM |
| COc1ccc(-c2[nH]ncc2-c2cc3c(c(OC)c2)OCC(=O)N3)cc1 | > 100 µM | 2.24 µM | 1.43 µM | 29.2 µM |  | 41.5 µM | 1.21 µM | 0.298 µM |  | 0.469 µM |
| CN1CCN(c2ccc(C(=O)Nc3n[nH]c4ccc(Cc5cc(F)cc(F)c5)cc34)c(NC3CCOCC3)c2)CC1 | 5.51 µM and 3.06 µM | 4.37 µM and 3.22 µM | 4.81 µM and 2.02 µM | > 10 µM and 4.54 µM | 2.86 µM and 3.13 µM | > 10 µM and 3.28 µM | 1.89 µM and 1.5 µM | 1.23 µM and 1.21 µM | 1.39 µM and 1.49 µM | 5.61 µM and 1.8 µM |
| O=C(Nc1ccc(Cl)cc1Cl)c1ccc(NC2=C(Cl)C(=O)N(Cc3ccccc3)C2=O)cc1 | 31.2 µM | 47 µM |  |  | > 100 µM | 30 µM | 17.4 µM | 23.5 µM | 32.5 µM | 15.6 µM |
| CN1CCc2cc3c(cc2C1O)OCO3 (centres undefined) | 35 µM and > 100 µM | 82.3 µM and > 100 µM | 23.5 µM and > 100 µM | 59.5 µM and > 100 µM | 11.9 µM and > 100 µM |  | 17.6 µM and > 100 µM |  |  |  |
| NS(=O)(=O)c1ccc(NC(=O)c2ccc(NC3=C(Cl)C(=O)N(Cc4ccccc4)C3=O)cc2)cc1 | 8.11 µM | 4.5 µM | 19.6 µM | 43.3 µM | 26.5 µM |  | 2.65 µM | 1.64 µM | 10.6 µM |  |
